# Source: patent US7238469B2, “Carbon monoxide improves outcomes in tissue and organ transplants and suppresses apoptosis” (priority 2001, dated 2007)
# How the values were obtained:
# [1] = test system: mouse hearts transplanted into rats; assay: Histomorphometric analysis of infarcted area in transplanted hearts; type: in vivo, BALB/c mouse hearts, Lewis rats; conditions: 3 days after transplantation; SnPPIX treated rats that received exogenous CO
# Source text: Grafts were harvested 3 days after transplantation, […], and serially sectioned (5 îm) in toto from the apex to the base. Ten sections were placed per slide in a total of about 20–25 slides. Every fifth slide was stained with hematoxylin and eosin (H&E) for histomorphometric analysis. Two images per slide were captured by using a Nikon Eclipse E600O microscope (Nikon, Melville, N.Y.) connected to a Hitachi 3-CCD Color Camera (model HV-C20; Hitachi, Tokyo, Japan) and to a Power MacintoshO 7300/200 computer (Apple Computer, Cupertino, Calif.) equipped with IPLab Spectrum digital imaging software (Signal Analytics Corporation, Vienna, Va.). About 50 images were captured from each transplanted heart from two to three animals per group. Images were analyzed by manual segmentation, tracing the infarcted and noninfarcted areas from the right and left ventricles in each section. Areas corresponding to infarcted and noninfarcted tissue were calculated by digital imaging software as number of pixels corresponding to those areas. Infarcted and noninfarcted areas were then calculated as percentage of total area. Pooled data for each group, expressed as area in pixels or as percentage of infarction, was analyzed by using ANOVA. […] Results are expressed as mean=SD. […]
# p38 MAPK = biological target: T1, p38 MAPK (Bos taurus, UniProt A6QLR9); type: cell-based, bovine; conditions: BAECs; CO 10,000 ppm
# T1 construct: endogenous in cells; host or cells: bovine aortic endothelial cells (BAEC)
# T1 sequence (A6QLR9 1-360): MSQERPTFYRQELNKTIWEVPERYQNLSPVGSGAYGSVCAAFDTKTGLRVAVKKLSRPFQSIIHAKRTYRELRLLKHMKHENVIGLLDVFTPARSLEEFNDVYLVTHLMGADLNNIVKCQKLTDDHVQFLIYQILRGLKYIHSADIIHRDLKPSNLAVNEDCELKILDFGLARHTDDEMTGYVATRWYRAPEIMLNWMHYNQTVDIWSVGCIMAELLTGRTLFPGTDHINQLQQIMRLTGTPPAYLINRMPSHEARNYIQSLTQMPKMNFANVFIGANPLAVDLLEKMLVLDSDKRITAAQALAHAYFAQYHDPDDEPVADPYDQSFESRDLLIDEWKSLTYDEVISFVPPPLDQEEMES
# [2] = water at 0° C.; cited from earlier work
# [3] = test system: rat platelets overlaid on mouse 2F–2B endothelial cells; assay: Platelet aggregation assay, platelets overlaid on pretreated endothelial cells; type: cell-based; conditions: endothelial cells pretreated with protoporphyrin 50 μM; ADP 2 μM
# Description: Mouse 2F–2B endothelial cells were cultured on 0.2% gelatin (Sigma) coated six-well plates in 88% DMEM (Life Technologies), 10% FCS (FCS), 100 U/ml penicillin, and 100 îg/ml streptomycin (Life Technologies). Confluent endothelial cells either were left untreated or were treated with the HO-inducing agent CoPPIX (50 îM; 18 h), the HO inhibitor SnPPIX (50 îM, 18 h), or both CoPPIX (50 îM, 15 h) and SnPPIX (50 îM, 3 h). Platelet-rich plasma was obtained by centrifugation (290-g, 12 min, 19° C.) of normal rat […] in 3.8% sodium citrate. Rat platelets (3–10^8 cells ml) were resuspended in HT buffer (8.9 mM NaHCO3, 0.8 mM KH2PO, 5.6 mM dextrose, 2.8 mM KCl solution, 0.8 mM MgCl2, 129 mM NaCl, 10 mM HEPES). Platelets were overlaid (5 min; 37° C.) on mouse endothelial cells, and platelet aggregation assays were conducted as described before (Kaczmarek et al, J. Biol. Chem. 271:33116, 1996) by using an aggregometer (Chrono-Log, Harestown, Pa.) and ADP (0.5–4 μM) as an agonist.
# HO-1 = assay: Western blot of HO-1 expression in cultured endothelial cells; type: cell-based, mouse; conditions: data not shown
# Description: Endothelial cells were washed in PBS (pH 7.2), harvested by scraping, and lysed in Laemmli buffer. Electrophoresis was conducted under denaturing conditions with 10% polyacrylamide gels. Proteins were transferred onto a polyvinyldifluoridine membrane (immobilon P; Millipore, Bedford, Mass.) by electroblotting and detected with rabbit polyclonal Abs directed against human HO-1 or HO-2 (StressGen, Victoria, Canada) or é-tubulin (Boehringer Mannheim, Mannheim, Germany). Proteins were visualized by using HRP-conjugated donkey anti-rabbit IgG or goat anti-mouse IgG (Pierce) and the ECL assay (Amersham Life Science, Arlington Heights, Ill.) according to manufacturer's instructions.
SMILES,infarction of the left ventricle [1] [%],infarction of the right ventricle [1] [%],p38 MAPK activation (p38 MAPK),saturation point [2],platelet aggregation on stimulation by ADP [3],expression of HO-1 in cultured endothelial cells (HO-1)
"[C-]#[O+] [CO, carbon monoxide]",1.8±3.4,8.4±5.3,activated p38 MAPK even in the absence of TNF-α,about 0.0044 g CO/100 g medium,,
"C=Cc1c2[n-]c(c1C)/C=c1\[n-]/c(c(C)c1C=C)=C\c1[n-]c(c(CCC(=O)O)c1C)C=c1[n-]/c(c(C)c1CCC(=O)O)=C\2.[Sn+4] [SnPPIX, tin protoporphyrin IX]",,,,,platelet aggregation was enhanced,up-regulated the expression of HO-1
